Source: patent US20260216292A1, “CXCL8 INHIBITORS FOR USE IN THE TREATMENT OF OCULAR MUCOUS MEMBRANE PEMPHIGOID AND/OR ORAL MUCOUS MEMBRANE PEMPHIGOID” (DOMPE' FARMACEUTICI SPA, priority 2023, published 2026)
Entries after “also recorded” stand apart in the source; their conditions may differ.

How the values were obtained:
Type in all cases: in vivo, C57Bl/6 (B6) mice
[1] = system: experimental MMP mouse model (anti-mLAMα3 IgG induced); assay: Conjunctival lesions by lesional histopathology (H&E) of palpebral conjunctiva in antibody transfer-induced experimental MMP; settings: for overall therapeutic effect in diseased mice: administered topically twice a day, days 12 and 28; for subepithelial inflammatory infiltrate, semi-quantification of H&E stained palpebral conjunctival biopsies / palpebral conjunctival split formation (conjunctiva score): vs vehicle; for palpebral conjunctival split formation (conjunctiva score): score 0-4
Excerpt: (§1) Adult C57Bl/6 (B6) mice (male and female) aged at least 6 weeks old were used. Animals were maintained on a 12-h light-dark cycle at the animal facility of the University of Lübeck. Mice were held under SPF conditions and fed acidified drinking water and standard chow ad libitum. Protocols were approved by the Animal Rights Commission of the Ministry of Agriculture and Environment, Schleswig-Holstein.
For production of anti-mLAMα3 IgG, New Zealand White rabbits were immunized subcutaneously with […] of an equimolar mixture of the 2 purified recombinant proteins (aa1656-1985 and aa2756-3330 of murine Laminin alpha3 chain, produced in E. coli as disclosed by Heppe, E. N., et al., J Invest Dermatol, 2017, 137, 1709-1718) suspended in complete Freund's adjuvant. The animals were boosted twice with the same protein preparation in incomplete Freund's adjuvant. Immune sera were obtained at regular intervals and characterized by IF microscopy on cryosections of murine skin. IgG from rabbits immunized with recombinant fragments of murine mLAMα3 and from non-immunized rabbits was purified by affinity chromatography using protein G sepharose affinity chromatography (Amersham Biosciences, Heidelberg, Germany). Reactivity of IgG fractions was analyzed by IF microscopy on murine skin (Sitaru et al., J Immunol 2006, 177: 3461-8). In addition, each batch of anti-mLAMα3 IgG was characterized in vivo regarding its capability to induce experimental MMP in C57Bl/6 (B6) mice (WP1.1). From this experiment, the amount of antibodies that leads to moderate experimental MMP was determined; i.e. the amount needed to induce disease development with moderate involvement of the conjunctiva (i.e. score of 1-3 in a maximum of 50% of the animals on day 12) in the model of antibody transfer-induced MMP. For this purpose, the intensity of the separation of the conjunctiva is determined histologically. The body surface area affected should be between 3-8% at the concentration used. The conjunctiva score was set histologically post-mortem and was in a range of 0-4, depending on the intensity of the separation of the conjunctiva. The amount needed was determined to be 5 mg/injection of anti-mLAMα3 IgG.
To test DF2156A at 0.5% and reparixin at 0.5% effects on the severity of conjunctival involvement in experimental MMP, the disease was induced by repetitive subcutaneous (s.c.) injections of anti-mLAMα3 IgG (5 mg/mouse) on alternating days (0, 2, ( . . . ) and 10) into adult B6 mice, which were treated throughout the entire experiment twice a day via eyedrops. Three eyedrops per eye were given twice daily. Mice treated with solvent via eyedrops or methylprednisolone (MP) via i.p. injections were used as treatment controls. Mice s.c. injected with IgG isolated from normal rabbit serum (NR IgG) served as negative control.
The primary endpoint of this experiment was the extent of conjunctival lesions as determined by lesional histopathology (H&E stain) on day 12 and 28 following an established scoring system (Heppe, E. N., et al., J Invest Dermatol, 2017, 137, 1709-1718). In detail, biopsies from the palpebral conjunctiva were taken on day 12 and day 28 and paraffine embedded. 4.5 μm thick sections from 3 different depths of the biopsies were cut in triplicate and H&E stained for further quantification. Among the H&E stained histologies those with a palpebral conjunctival-epithelium with more than 1000 μm were used for quantification. For this score the length of the split formation (split=epithelia separation from the underlying dermal structures) is measured. The split length is categorized to a score of 0-4 with no split=0, less than 100 μm=1, less than 200 μm=2, less than 300 μm=3, more or equal 300 μm=4. Splits that occurred at the end of the tissue were excluded, because they were most likely to be of artificial nature due to the cutting. The longest split out of 9 possible sections is decisive for the final score. […]

[2] = system: experimental MMP mouse model (anti-mLAMα3 IgG induced); assay: Macroscopic affected eye area in experimental MMP; settings: DF2156A topical eyedrops, MP i.p. once daily
Excerpt: as §1
For production of anti-mLAMα3 IgG, New Zealand White rabbits were immunized subcutaneously with […] of an equimolar mixture of the 2 purified recombinant proteins (aa1656-1985 and aa2756-3330 of murine Laminin alpha3 chain, produced in E. coli as disclosed by Heppe, E. N., et al., J Invest Dermatol, 2017, 137, 1709-1718) suspended in complete Freund's adjuvant. […] Reactivity of IgG fractions was analyzed by IF microscopy on murine skin (Sitaru et al., J Immunol 2006, 177: 3461-8). […] From this experiment, the amount of antibodies that leads to moderate experimental MMP was determined; i.e. the amount needed to induce disease development with moderate involvement of the conjunctiva (i.e. score of 1-3 in a maximum of 50% of the animals on day 12) in the model of antibody transfer-induced MMP. For this purpose, the intensity of the separation of the conjunctiva is determined histologically. […] The amount needed was determined to be 5 mg/injection of anti-mLAMα3 IgG. […]

[3] = system: experimental MMP mouse model (anti-mLAMα3 IgG induced); assay: Severity of oral lesions by endoscopy (oral score) in experimental MMP; settings: day 28; vs vehicle; DF2156A eyedrops, MP i.p.; maximum score 4
[4] = day 12, 0.5% eyedrops twice daily
[5] = day 28, 0.5% eyedrops twice daily
[6] = day 28, 0.5% eyedrops twice daily, listed as Reparixin

| Structure (SMILES) | overall therapeutic effect in diseased mice [1] | subepithelial inflammatory infiltrate, semi-quantification of H&E stained palpebral conjunctival biopsies [1, 4] | subepithelial inflammatory infiltrate, semi-quantification of H&E stained palpebral conjunctival biopsies [1, 5] | subepithelial inflammatory infiltrate, semi-quantification of H&E stained palpebral conjunctival biopsies [1, 6] | palpebral conjunctival split formation (conjunctiva score) [1, 5] | palpebral conjunctival split formation (conjunctiva score) [1, 6] | palpebral conjunctival split formation (conjunctiva score) ([1]; day 12, DF2156A 0.5% or reparixin 0.5% eyedrops twice daily) | extent of macroscopic affected eye area ([2]; day 12) | extent of affected eye area (AUC over 28 days) ([2]; day 28) | severity of oral lesions (oral score) [3] |
| --- | --- | --- | --- | --- | --- | --- | --- | --- | --- | --- |
| CC(C)Cc1ccc([C@@H](C)C(=O)NS(C)(=O)=O)cc1 [reparixin, R-(−)-2-(4-isobutylphenyl)propionyl methansulfonamide] | overall benefit; also recorded: slower onset of the therapeutic effect | reduced | significantly decreased | reduced | significant reduction | reduced | – | – | – | – |
| C[C@@H](C(=O)NS(C)(=O)=O)c1ccc(OS(=O)(=O)C(F)(F)F)cc1 [DF2156A, R(−)-2-[(4-trifluoromethanesulfonyloxy)phenyl]-N-methanesulfonyl propionamide] | overall benefit | reduced | decreased; also recorded: improvement | – | significant reduction; also recorded: improvement | – | significant reduction; also recorded: improvement | reduction | reduction | decreased |
